One test concerns the target T1, b-Raf (V600E) (Homo sapiens, UniProt P15056, V600E).
T1 construct: made in house
Briefly: In vitro Raf activity determination (Alpha Screen, biotinylated kinase-dead MEK1 substrate), B-Raf. In kind it is biochemical. As to conditions: b-Raf (V600E) approximately 4 pM; ATP 10 μM; pre-incubation 60 minutes; reaction 3 hours at room temperature. Put shortly:
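IC50 from non-linear regression of AlphaScreen phospho-MEK signal (anti-p-MEK1/2 antibody). b-Raf(V600E), about 4 pM, phosphorylated ~10 nM biotinylated K97R MEK1 with 10 μM ATP for 3 h at room temperature after 60 min compound pre-incubation; buffer pH 7.5 Tris, 15 mM MgCl2, 1 mM DTT.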

A further test deals with T2, C-RAF (Homo sapiens, UniProt P04049, Y340E/Y341E).
T2 construct: His tag (implied by nickel chromatography) (cleaved yes); StrepII tag (cleaved yes); made in house; host or cells: Sf9 insect cells (baculovirus), CRAF and h14-3-3 zeta co-expressed; MEK1 substrate from E. coli
The experiment in a line: In vitro Raf activity determination (Alpha Screen, biotinylated kinase-dead MEK1 substrate), C-Raf. It counts as biochemical. As to conditions: c-Raf approximately 4 nM; ATP 1 μM; pre-incubation 60 minutes; reaction 1 hour at room temperature. Put shortly: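 AlphaScreen read-out of MEK phosphorylation using an anti-phospho-MEK1/2 antibody after a 1 hour room-temperature reaction at 1 μM ATP. Enzyme: approximately 4 nM Sf9-expressed full-length activated C-Raf (Y340E/Y341E, with 14-3-3ζ) on approximately 10 nM biotinylated K97R MEK1, after 60 min compound preincubation. IC50 by non-linear fit.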

Our source for the IC50 values is patent US10392404B2, “Compounds and compositions as kinase inhibitors” (NOVARTIS AG, priority 2014, dated 2019).

The structures appear in SMILES notation.

T1 sequence (P15056 whole entry V600E): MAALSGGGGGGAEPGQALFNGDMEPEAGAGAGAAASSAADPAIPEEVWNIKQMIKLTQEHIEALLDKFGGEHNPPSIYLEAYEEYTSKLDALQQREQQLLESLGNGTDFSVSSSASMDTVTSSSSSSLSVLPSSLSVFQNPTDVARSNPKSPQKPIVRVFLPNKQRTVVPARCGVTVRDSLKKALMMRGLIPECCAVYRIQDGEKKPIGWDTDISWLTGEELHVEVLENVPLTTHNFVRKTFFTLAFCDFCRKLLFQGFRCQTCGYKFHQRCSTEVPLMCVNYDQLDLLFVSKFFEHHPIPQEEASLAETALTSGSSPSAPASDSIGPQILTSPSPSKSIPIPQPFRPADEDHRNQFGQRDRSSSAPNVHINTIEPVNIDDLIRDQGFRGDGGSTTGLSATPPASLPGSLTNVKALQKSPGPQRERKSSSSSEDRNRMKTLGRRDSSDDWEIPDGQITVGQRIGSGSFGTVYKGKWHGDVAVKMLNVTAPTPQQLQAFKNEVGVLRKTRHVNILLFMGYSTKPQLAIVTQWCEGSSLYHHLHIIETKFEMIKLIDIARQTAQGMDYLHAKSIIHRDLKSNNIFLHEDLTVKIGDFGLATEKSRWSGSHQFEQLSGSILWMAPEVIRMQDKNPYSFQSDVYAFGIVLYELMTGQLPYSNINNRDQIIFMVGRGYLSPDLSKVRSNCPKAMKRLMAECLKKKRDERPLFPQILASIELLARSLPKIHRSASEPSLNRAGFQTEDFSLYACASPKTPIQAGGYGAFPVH
T2 sequence (P04049 whole entry Y340E/Y341E): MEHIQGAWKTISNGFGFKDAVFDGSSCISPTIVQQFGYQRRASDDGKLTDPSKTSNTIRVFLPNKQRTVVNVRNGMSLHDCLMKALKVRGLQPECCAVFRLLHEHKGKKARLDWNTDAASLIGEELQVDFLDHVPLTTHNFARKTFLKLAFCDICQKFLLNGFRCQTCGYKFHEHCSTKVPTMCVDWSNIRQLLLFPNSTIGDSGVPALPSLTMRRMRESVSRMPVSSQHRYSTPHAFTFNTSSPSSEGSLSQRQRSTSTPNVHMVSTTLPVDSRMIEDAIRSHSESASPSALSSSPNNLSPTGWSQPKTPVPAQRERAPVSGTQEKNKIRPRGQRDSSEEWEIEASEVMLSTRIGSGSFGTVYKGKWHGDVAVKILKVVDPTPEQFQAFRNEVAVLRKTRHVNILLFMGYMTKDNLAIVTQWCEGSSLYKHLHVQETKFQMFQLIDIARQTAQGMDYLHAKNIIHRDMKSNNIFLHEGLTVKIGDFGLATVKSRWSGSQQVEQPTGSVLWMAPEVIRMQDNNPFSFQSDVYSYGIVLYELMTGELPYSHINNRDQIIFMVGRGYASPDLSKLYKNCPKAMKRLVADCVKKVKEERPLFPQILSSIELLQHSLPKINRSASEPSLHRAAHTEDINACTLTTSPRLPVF
T2 sequence (P63104 whole entry partner): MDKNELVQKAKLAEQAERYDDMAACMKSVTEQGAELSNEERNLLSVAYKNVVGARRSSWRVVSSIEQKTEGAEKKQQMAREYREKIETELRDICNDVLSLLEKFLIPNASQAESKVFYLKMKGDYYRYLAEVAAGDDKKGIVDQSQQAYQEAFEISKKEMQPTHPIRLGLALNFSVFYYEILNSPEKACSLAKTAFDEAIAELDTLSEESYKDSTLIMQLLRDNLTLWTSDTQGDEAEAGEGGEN

For the compound `CCn1cc(C(=O)Nc2ccc(C)c(-c3cnc(N(C)C)c(C#N)c3)c2)cc(C(F)(F)F)c1=O` [Example 250, N-(3-(5-cyano-6-(dimethylamino)pyridin-3-yl)-4-methylphenyl)-1-ethyl-6-oxo-5-(trifluoromethyl)-1,6-dihydropyridine-3-carboxamide], the half-maximal inhibitory concentration (IC50) (as a rule, the concentration that inhibits the measured activity by half) against b-Raf (V600E) was 1.96 nM; against C-RAF it was 0.401 nM.

For the compound `Cc1ncc(NC(=O)c2cc(C(C)(F)F)ccn2)cc1-c1cnc(N2CCOCC2)c(C#N)c1` [Example 238, N-(5′-cyano-2-methyl-6′-morpholino-[3,3′-bipyridin]-5-yl)-4-(1,1-difluoroethyl) picolinamide], the IC50 turned out to be 2.25 nM on b-Raf (V600E) and 0.333 nM against C-RAF.

In the case of `Cc1ncc(NC(=O)c2ccnc(C(C)(C)C#N)c2)cc1-c1cnc(-c2ccncc2)c(C#N)c1` [Example 107], the IC50 at b-Raf (V600E) was determined as 9.07 nM; against C-RAF, 2.16 nM.

In the case of `Cc1ccc(NC(=O)c2cccc(S(C)(=O)=O)c2)cc1-c1cnc(N2CCOCC2)c(C#N)c1` [Example 157, N-(3-(5-cyano-6-morpholinopyridin-3-yl)-4-methylphenyl)-(methylsulfonyl) benzamide], the results for the IC50 against b-Raf (V600E) and at C-RAF were 0.304 nM and 0.0559 nM, respectively.

As to `Cc1ccc(NC(=O)c2ccnc(C(F)(F)F)c2)cc1-c1cnc(-c2cnn(C)c2)c(C#N)c1` [Example 124, N-(3-(5-cyano-6-(1-methyl-1H-pyrazol-4-yl)pyridin-3-yl)-4-methylphenyl)-2-(trifluoromethyl) isonicotinamide], the IC50 on b-Raf (V600E) is 0.427 nM; against C-RAF, 0.0746 nM.

Regarding `Cc1ccc(C(=O)Nc2cccc(C(F)(F)F)c2)cc1-c1cncc(C#N)c1` [Example 27, 3-(5-cyanopyridin-3-yl)-4-methyl-N-(3-(trifluoromethyl)phenyl)benzamide], the IC50 against b-Raf (V600E) is 21.1 nM; against C-RAF, 1.65 nM.

For `Cc1ccc(NC(=O)c2ccnc(C3(C#N)CC3)c2)cc1-c1cnc(N2CC(C)(O)C2)c(C#N)c1` [Example 220, N-(3-(5-cyano-6-(3-hydroxy-3-methylazetidin-1-yl)pyridin-3-yl)-4-methylphenyl)-2-(1-cyanocyclopropyl) isonicotinamide], the results for the IC50 on b-Raf (V600E) and against C-RAF were 0.939 nM and 0.183 nM, respectively.

For the compound `Cc1ccc(C(=O)Nc2cccc(C(F)(F)F)c2)cc1-c1cnc(N)c(C#N)c1` [Example 3, 3-(6-amino-5-cyanopyridin-3-yl)-4-methyl-N-(3-(trifluoromethyl)phenyl)benzamide], the half-maximal inhibitory concentration (IC50) worked out at 0.991 nM on b-Raf (V600E) and 0.125 nM against C-RAF.

As for `Cc1ccc(NC(=O)c2cn(C)nc2C)cc1-c1cnc(N(C)C)c(C#N)c1` [Example 252, N-(3-(5-cyano-6-(dimethylamino)pyridin-3-yl)-4-methylphenyl)-1,3-dimethyl-1H-pyrazole-4-carboxamide], the concentration for half-maximal inhibition (IC50) was 196 nM against b-Raf (V600E) and 17.6 nM at C-RAF.

For `Cc1ncc(NC(=O)c2ccnc(C(C)(C)C#N)c2)cc1-c1cnc(-c2ccnnc2)c(C#N)c1` [Example 115], the results for the IC50 against b-Raf (V600E) and on C-RAF were 70.6 nM and 11.5 nM, respectively.

As to `Cc1ncc(NC(=O)c2ccnc(C(F)(F)F)c2)cc1-c1cnc(-c2cn(C)nc2C)c(C#N)c1` [Example 111, N-(5′-cyano-6′-(1,3-dimethyl-1H-pyrazol-4-yl)-2-methyl-[3,3′-bipyridin]-5-yl)-2-(trifluoromethyl) isonicotinamide], the 50% inhibitory concentration (IC50) amounted to 1.46 nM against b-Raf (V600E) and 0.397 nM against C-RAF.

With `Cc1ccc(NC(=O)c2ccnc(C(C)(C)O)c2)cc1-c1cnc(N2CC(C)(O)C2)c(C#N)c1` [Example 215, N-(3-(5-cyano-6-(3-hydroxy-3-methylazetidin-1-yl)pyridin-3-yl)-4-methylphenyl)-2-(2-hydroxypropan-2-yl)isonicotinamide], the results for the half-maximal inhibitory concentration (IC50) at b-Raf (V600E) and against C-RAF were 8.05 nM and 1.28 nM, respectively.

For `Cc1ccc(NC(=O)c2ccnc(C(F)F)c2)cc1-c1cnc(N2CCOCC2)c(C#N)c1` [Example 154, N-(3-(5-cyano-6-morpholinopyridin-3-yl)-4-methylphenyl)-2-(difluoromethyl) isonicotinamide], the figures for the IC50 against b-Raf (V600E) and against C-RAF were 0.342 nM and 0.0675 nM, respectively.

Consider `Cc1ccc(NC(=O)c2cc(C(C)(C)O)ccn2)cc1-c1cnc(N2CCOCC2)c(C#N)c1` [Example 237, N-(3-(5-cyano-6-morpholinopyridin-3-yl)-4-methylphenyl) 4-(2-hydroxypropan-2-yl)picolinamide], for which the IC50 at b-Raf (V600E) was 2.25 nM; against C-RAF it was 0.695 nM.

With `Cc1ncc(NC(=O)c2ccnc(C(C)(C)O)c2)cc1-c1cnc(NC2CCOCC2)c(C#N)c1` [Example 170, N-(5′-cyano-2-methyl-6′-((tetrahydro-2H-pyran-4-yl)amino)-[3,3′-bipyridin]-5-yl)-2-(2-hydroxypropan-2-yl)isonicotinamide], the IC50 on b-Raf (V600E) was 12.1 nM; against C-RAF, 3.16 nM.

Consider `Cc1ncc(NC(=O)c2cc(C(C)(F)F)ccn2)cc1-c1cnc(N2CC(C)(O)C2)c(C#N)c1` [Example 239], for which the figures for the IC50 against b-Raf (V600E) and at C-RAF were 6.38 nM and 0.711 nM, respectively.

Take `Cc1ccc(NC(=O)c2cc(C(C)(C)C#N)ccn2)cc1-c1cnc(N2CCOCC2)c(C#N)c1` [Example 233, N-(3-(5-cyano-6-morpholinopyridin-3-yl)-4-methylphenyl)-4-(2-cyanopropan-2-yl)picolinamide]: the IC50 against b-Raf (V600E) is 1.34 nM; against C-RAF, 0.187 nM.

As for `Cc1ncc(NC(=O)c2ccnc(C(C)(C)C#N)c2)cc1-c1cnc(NC2CC2)c(C#N)c1` [Example 82, N-(5′-cyano-6′-(cyclopropylamino)-2-methyl-[3,3′-bypyridin]-5-yl)-2-(2-cyanopropan-2-yl)isonicotinamide], the IC50 at b-Raf (V600E) is 10.8 nM; against C-RAF, 2.04 nM.

Regarding `Cc1ncc(NC(=O)c2cc(C(C)(C)C#N)ccn2)cc1-c1cnc(N2CC(C)(O)C2)c(C#N)c1` [Example 231, N-(5′-cyano-6′-(3-hydroxy-3-methylazetidin-1-yl)-2-methyl-[3,3′-bipyridin]-5-yl)-4-(2-cyanopropan-2-yl)picolinamide], the IC50 at b-Raf (V600E) stood at 15.8 nM; at C-RAF, 1.96 nM.

As for `Cc1ccc(NC(=O)c2cccc(S(C)(=O)=O)c2)cc1-c1cnc(N(C)C)c(C#N)c1` [Example 260, N-(3-(5-cyano-6-(dimethylamino)pyridin-3-yl)-4-methylphenyl)-3-(methylsulfonyl) benzamide], the half-maximal inhibitory concentration (IC50) was 0.297 nM at b-Raf (V600E) and 0.115 nM on C-RAF.

Regarding `Cc1ccc(NC(=O)c2ccnc(C(C)(C)C#N)c2)cc1-c1cnc(Cl)c(C#N)c1` [Example 32, N-(3-(6-chloro-5-cyanopyridin-3-yl)-4-methylphenyl)-2-(2-cyanopropan-2-yl)isonicotinamide], the IC50 worked out at 5.73 nM against b-Raf (V600E) and 1.03 nM against C-RAF.

Regarding `Cc1ccc(NC(=O)c2ccccc2)cc1-c1cncc(C#N)c1` [Example 149, N-(3-(5-cyanopyridin-3-yl)-4-methylphenyl) benzamide], the IC50 on b-Raf (V600E) was 15100 nM; against C-RAF, 2370 nM.

For `Cc1ncc(NC(=O)c2ccnc(C(C)(C)O)c2)cc1-c1cnc(C2CCOCC2)c(C#N)c1` [Example 167, N-(5′-cyano-2-methyl-6′-(tetrahydro-2H-pyran-4-yl)-[3,3′-bipyridin]-5-yl)-2-(2-hydroxypropan-2-yl)isonicotinamide], the IC50 on b-Raf (V600E) was 33 nM; against C-RAF, 6.86 nM.

Turning to `Cc1ncc(NC(=O)c2cnnc(C(C)(C)C#N)c2)cc1-c1cnc(N2CC(C)(O)C2)c(C#N)c1` [Example 186, N-(5′-cyano-6′-(3-hydroxy-3-methylazetidin-1-yl)-2-methyl-[3,3′-bipyridin]-5-yl)-6-(2-cyanopropan-2-yl)pyridazine-4-carboxamide], the IC50 against b-Raf (V600E) worked out at 52.6 nM; against C-RAF it was 10.2 nM.

As for `Cc1ncc(NC(=O)c2ccnc(C(F)(F)F)c2)cc1-c1cnc(NC2CCOCC2)c(C#N)c1` [Example 173, N-(5′-cyano-2-methyl-6′-((tetrahydro-2H-pyran-4-yl)amino)-[3,3′-bipyridin]-5-yl)-2-(trifluoromethyl) isonicotinamide], the IC50 came out at 1.63 nM against b-Raf (V600E) and 0.478 nM against C-RAF.

With `Cc1ccc(NC(=O)c2ccnc(C(C)(C)C#N)c2)cc1-c1cnc(N2CCNCC2)c(C#N)c1` [Example 151, N-(3-(5-cyano-6-(piperazin-1-yl)pyridin-3-yl)-4-methylphenyl)-2-(2-cyanopropan-2-yl)isonicotinamide], the figures for the IC50 at b-Raf (V600E) and against C-RAF were 1.41 nM and 0.353 nM, respectively.

Turning to `Cc1ccc(NC(=O)c2cc(C(F)(F)F)ccn2)cc1-c1cnc(N2CCOCC2)c(C#N)c1` [Example 222, N-(3-(5-cyano-6-morpholinopyridin-3-yl)-4-methylphenyl)-4-(trifluoromethyl) picolinamide], the IC50 is 1 nM against b-Raf (V600E) and 0.219 nM at C-RAF.

With `Cc1ncc(NC(=O)c2cc(C(F)(F)F)ccn2)cc1-c1cnc(N2CC(C)(O)C2)c(C#N)c1` [Example 225, N-(5′-cyano-6′-(3-hydroxy-3-methylazetidin-1-yl)-2-methyl-[3,3′-bipyridin]-5-yl)-4-(trifluoromethyl) picolinamide], the IC50 against b-Raf (V600E) turned out to be 5 nM; on C-RAF, 1.08 nM.
